Columns and labels:
[1] = tested on: B. subtilis 168; assay: Bliss interaction score (quartile over a dose matrix) (fitness difference); higher = more antagonism (negative = synergy)
Method in brief: (§1)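 The Bliss score is observed fitness minus expected fitness, where the expected value is the product of single-drug fitness values inferred from combination data. Fitness is OD595 at entry into stationary phase normalised to the plate's robust no-drug mean and capped at 1. Scores are reported as quartiles spanning technical, biological and donor/recipient replicates.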

[2] = tested on: S. aureus Newman; assay: as above
Method in brief: as §1

[3] = tested on: S. pneumoniae D39V; assay: as above
Method in brief: as §1

[4] = tested on: S. aureus DSM 20231; assay: as above
Method in brief: as §1

[5] = tested on: B. subtilis 168; assay: fitness (endpoint OD595 vs no drug) (fraction); higher = more growth
Method in brief: (§2)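 At 37 °C, bacteria in TSB, LB Lennox or CY were grown in 384-well plates from a starting OD595 of 0.01. OD595 was measured every 30 min for 14 h, with the first reading used as background. Fitness is the optical density at the switch to stationary phase as a fraction of the robust mean of no-drug control wells, capped at 1.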

[6] = tested on: S. aureus Newman; assay: as above
Method in brief: as §2

[7] = tested on: S. pneumoniae D39V; assay: as above
Method in brief: as §2

[8] = tested on: S. aureus DSM 20231; assay: as above
Method in brief: as §2
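For Bliss interaction score (quartile over a dose matrix) in this document: first quartile when negative (synergy) and third quartile when positive (antagonism).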
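For fitness (endpoint OD595 vs no drug) in this document: OD595 on entry to stationary phase over no-drug wells; at most 1.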

Cc1onc(-c2ccccc2)c1C(=O)N[C@@H]1C(=O)N2[C@@H]1SC(C)(C)[C@@H]2C(=O)O [Oxacillin] + CN(N=O)C(=O)N[C@@H](C=O)[C@@H](O)[C@H](O)[C@H](O)CO [Streptozotocin]
Settings	Bliss interaction score
[1]	0.0537
[2]	-0.0656
[3]	-0.0748
[4]	-0.0548

fitness, [5], one replicate
Settings	first compound 0.002 µg/mL	first compound 0.004 µg/mL	first compound 0.008 µg/mL	first compound 0.075 µg/mL	first compound 0.15 µg/mL	first compound 0.3 µg/mL
partner 0.15 µg/mL	≥ 1	≥ 1	0.946	0.593	0.0403	0.0476
partner 0.3 µg/mL	0.98	≥ 1	0.983	0.377	0.0243	0.0338
partner 0.6 µg/mL	0.998	≥ 1	0.882	0.593	0.0217	0.0158

fitness
Settings	first compound 0.01 µg/mL	first compound 0.0156 µg/mL	first compound 0.02 µg/mL	first compound 0.0312 µg/mL	first compound 0.04 µg/mL	first compound 0.0625 µg/mL
[6], partner 0.15 µg/mL	–	0.663	–	0.613	–	0.538
[6], partner 0.3 µg/mL	–	0.593	–	0.57	–	0.466
[6], partner 0.6 µg/mL	–	0.454	–	0.387	–	0.228
[7], partner 1.2 µg/mL	0.941	–	0.889	–	0.243	–
[7], partner 2.4 µg/mL	0.977	–	0.873	–	0.245	–
[7], partner 4.8 µg/mL	0.927	–	0.866	–	0.212	–
[8], partner 0.15 µg/mL	–	0.693	–	0.596	–	0.462
[8], partner 0.3 µg/mL	–	0.635	–	0.582	–	0.493
[8], partner 0.6 µg/mL	–	0.549	–	0.494	–	0.396

Cc1onc(-c2ccccc2)c1C(=O)N[C@@H]1C(=O)N2[C@@H]1SC(C)(C)[C@@H]2C(=O)O [Oxacillin] + CN[C@@H]1[C@H](O)[C@H](NC)[C@H]2O[C@@]3(O)C(=O)C[C@@H](C)O[C@H]3O[C@@H]2[C@H]1O [Spectinomycin]
Settings	Bliss interaction score
[1]	0.0285
[2]	-0.0743
[3]	0.0929
[4]	-0.0526

fitness
Settings	partner 2 µg/mL	partner 4 µg/mL	partner 8 µg/mL	partner 16 µg/mL
[5], first compound 0.002 µg/mL	0.966	0.984	0.899	–
[5], first compound 0.004 µg/mL	≥ 1	≥ 1	0.874	–
[5], first compound 0.008 µg/mL	0.982	0.993	0.87	–
[6], first compound 0.0156 µg/mL	–	0.757	0.751	0.766
[6], first compound 0.0312 µg/mL	–	0.688	0.672	0.586
[6], first compound 0.0625 µg/mL	–	0.596	0.555	0.528
[7], first compound 0.01 µg/mL	–	0.94	0.93	0.819
[7], first compound 0.02 µg/mL	–	0.884	0.889	0.788
[7], first compound 0.04 µg/mL	–	0.373	0.455	0.415
[8], first compound 0.0156 µg/mL	–	0.779	0.802	0.764
[8], first compound 0.0312 µg/mL	–	0.681	0.684	0.665
[8], first compound 0.0625 µg/mL	–	0.482	0.497	0.489

fitness, one replicate
Settings	first compound 0.0156 µg/mL	first compound 0.0312 µg/mL	first compound 0.0625 µg/mL	first compound 0.075 µg/mL	first compound 0.15 µg/mL	first compound 0.3 µg/mL
[5], partner 2 µg/mL	–	–	–	0.467	0.0332	0.0357
[5], partner 4 µg/mL	–	–	–	0.394	0.034	0.0431
[5], partner 8 µg/mL	–	–	–	0.0241	0.0342	0.0299
[6], partner 32 µg/mL	0.483	0.272	0.135	–	–	–
[6], partner 64 µg/mL	0.0551	0.0867	0.0035	–	–	–
[8], partner 32 µg/mL	0.601	0.628	0.509	–	–	–
[8], partner 64 µg/mL	0.0615	0.0592	0.0362	–	–	–

Cc1onc(-c2ccccc2)c1C(=O)N[C@@H]1C(=O)N2[C@@H]1SC(C)(C)[C@@H]2C(=O)O [Oxacillin] + COc1ccc(C[C@H](N)C(=O)N[C@H]2[C@@H](O)[C@H](n3cnc4c(N(C)C)ncnc43)O[C@@H]2CO)cc1 [Puromycin]
Settings	Bliss interaction score
[1]	0.0568
[2]	0.0763
[3]	0.167
[4]	0.0572

Settings	fitness
[5], first compound 0.002 µg/mL, partner 0.39 µg/mL	0.98
[5], first compound 0.002 µg/mL, partner 0.78 µg/mL	0.966
[5], first compound 0.002 µg/mL, partner 1.56 µg/mL	0.932
[5], first compound 0.004 µg/mL, partner 0.39 µg/mL	0.974
[5], first compound 0.004 µg/mL, partner 0.78 µg/mL	0.914
[5], first compound 0.004 µg/mL, partner 1.56 µg/mL	0.9
[5], first compound 0.008 µg/mL, partner 0.39 µg/mL	0.88
[5], first compound 0.008 µg/mL, partner 0.78 µg/mL	0.879
[5], first compound 0.008 µg/mL, partner 1.56 µg/mL	0.864
[6], first compound 0.0156 µg/mL, partner 0.78 µg/mL	0.85
[6], first compound 0.0156 µg/mL, partner 1.56 µg/mL	0.806
[6], first compound 0.0312 µg/mL, partner 0.39 µg/mL	0.765
[6], first compound 0.0312 µg/mL, partner 0.78 µg/mL	0.788
[7], first compound 0.01 µg/mL, partner 1 µg/mL	≥ 1
[7], first compound 0.01 µg/mL, partner 2 µg/mL	0.969
[7], first compound 0.01 µg/mL, partner 4 µg/mL	0.918
[7], first compound 0.02 µg/mL, partner 1 µg/mL	0.984
[7], first compound 0.02 µg/mL, partner 2 µg/mL	0.949
[7], first compound 0.02 µg/mL, partner 4 µg/mL	0.863
[7], first compound 0.04 µg/mL, partner 1 µg/mL	0.668
[7], first compound 0.04 µg/mL, partner 2 µg/mL	0.644
[7], first compound 0.04 µg/mL, partner 4 µg/mL	0.281
[8], first compound 0.0156 µg/mL, partner 0.39 µg/mL	0.84
[8], first compound 0.0156 µg/mL, partner 0.78 µg/mL	0.902
[8], first compound 0.0156 µg/mL, partner 1.56 µg/mL	0.91
[8], first compound 0.0312 µg/mL, partner 0.39 µg/mL	0.72
[8], first compound 0.0312 µg/mL, partner 0.78 µg/mL	0.737
[8], first compound 0.0312 µg/mL, partner 1.56 µg/mL	0.748
[8], first compound 0.0625 µg/mL, partner 0.39 µg/mL	0.481
[8], first compound 0.0625 µg/mL, partner 0.78 µg/mL	0.555
[8], first compound 0.0625 µg/mL, partner 1.56 µg/mL	0.546

fitness, one replicate
Settings	first compound 0.0156 µg/mL	first compound 0.0312 µg/mL	first compound 0.0625 µg/mL	first compound 0.075 µg/mL	first compound 0.15 µg/mL	first compound 0.3 µg/mL
[5], partner 0.39 µg/mL	–	–	–	0.523	0.0695	0.0402
[5], partner 0.78 µg/mL	–	–	–	0.645	0.0521	0.0336
[5], partner 1.56 µg/mL	–	–	–	0.632	0.0547	0.0573
[8], partner 3.12 µg/mL	0.887	0.788	0.66	–	–	–
[8], partner 6.24 µg/mL	0.609	0.606	0.548	–	–	–

— the supplement of paper PMC10627819
